According to patent publication US11779531B2, “Anti-inflammatory peptides, and uses thereof” (NURITAS LIMITED, priority 2015, dated 2023):

System: TNF-α secretion in THP1 cells
Test: TNF-α secretion by LPS-stimulated THP-1 differentiated cells after synthetic peptide treatment (Biolegend ELISA)
Type: cell-based, human
Conditions: THP-1 cells, synthetic peptide 100, 10 or 1 ng/ml for 24 h, then 10 ng/ml LPS 5 h; vs untreated control; concentration behind the value not stated
Experimental: FIGS. 1 to 18: The effect of eighteen synthetic peptides of the invention on TNF-secretion in THP1 cells. All experiments were prepared in duplicate on three plates (6 wells/conditions). Significance was calculated using Students t-test (*p<0.05 compared to control, **p<0.01 compared to control, *** p<0.001 compared to control). The figures correspond with the following SEQ ID Nos: FIG. 1 is SEQ ID NO: 339, FIG. 2 is SEQ ID NO: 352, FIG. 3 is SEQ ID NO: 341, FIG. 4 is SEQ ID NO: 351, FIG. 5 is SEQ ID NO: 144, FIG. 6 is SEQ ID NO: 93, FIG. 7 is SEQ ID NO: 320, FIG. 8 is SEQ ID NO: 92, FIG. 9 is SEQ ID NO: 75, FIG. 10 is SEQ ID NO: 76, FIG. 11 is SEQ ID NO: 349, FIG. 12 is SEQ ID NO: 350, FIG. 13 is SEQ ID NO: 105, FIG. 14 is SEQ ID NO: 177, FIG. 15 is SEQ ID NO: 345, FIG. 16 is SEQ ID NO: 353, FIG. 17 is SEQ ID NO: 344, FIG. 18 is SEQ ID NO: 346.
FIGS. 26 to 28. The effect of three synthetic peptides of the invention on TNF-secretion in THP1 cells. All experiments were prepared in duplicate on three plates (6 wells/conditions). Significance was calculated using Students t-test (*p<0.05 compared to control, **p<0.01 compared to control, ***p<0.001 compared to control). The figures correspond with the following SEQ ID Nos: FIG. 26 is SEQ ID NO: 85, FIG. 27 is SEQ ID NO: 91, FIG. 28 is SEQ ID NO: 420.
TNF-α is secreted by macrophages in response to stimulation by endotoxins such as lipopolysaccharides (LPS). TNF-α is thought to be involved in systemic inflammation and dysregulation of TNF-α production is thought to be involved in many diseases. The Biolegend assay is a sandwich ELISA kit that is designed for the accurate quantitation of human TNF-α from cell culture supernatant, serum or plasma.
THP-1 monocytes were seeded in a 96 well plate at 10,000 cells per well in RPMI containing 10% fetal calf serum (FCS), 1% Pen/strep, 1% L-glutamine, 100 nM PMA and allowed to differentiated for 72 h prior to experimentation.
Following differentiation the cells were incubated with 100 ng/ml, 10 ng/ml or 1 ng/ml synthetic peptide for 24 h respectively.
Following treatment the cells were stimulated with 10 ng/ml LPS for 5 h and the quantity of TNF-α in the supernatant determined using the Biolegend assay ELISA kit.
Results were calculated as a percentage of the untreated control. An increase in optical density reading indicates greater quantity of TNF-a release into cell culture supernatant.
All experiments were prepared in duplicate on three plates (6 wells/conditions). Significance was calculated using Students t-test (*p<0.05 compared to control, **p<0.01 compared to control, ***p<0.001 compared to control).

Substance | TNF-α DECREASE [%]
75 (LSSGDVFVIPAGHPVAVK) [compound 75] | 11
76 (EDDEEEEQGEEEINK) [compound 76] | 9
85 (SKPHTIFLPQHTDADYILVVLSGK) [compound 85] | 80
91 (PGQLQSFLLSGNQNQQNYLSGFSK) [compound 91] | 80
92 (FFELTPEKNQQLQDLDLFVNSVDLK) [compound 92] | 13
93 (QLEELSK) [compound 93] | 14
105 (PSYEKQEDEEEKQK) [compound 105] | 9
144 (SIFRALPND) [compound 144] | 16
320 (RGPQQYAEWQINE) [compound 320] | 13
339 (QSFLLSGNQNQQ) [compound 339] | 26
341 (RGPQQYA) [compound 341] | 21
344 (GYYGEQQQQPGMTR) [compound 344] | 20
345 (IDGYDTPVEGR) [compound 345] | 23
346 (NGVLRPGQL) [compound 346] | 18
349 (TVFDGVLRPGQL) [compound 349] | 6
351 (HGPVEMPYTLLYPSSK) [compound 351] | 18
352 (LDALEPDNR) [compound 352] | 23
420 (RLQSQNDQRGEIIHVK) [compound 420] | 80
